# Active and inactive are the calls of the source. The calls are words filed in the database; no cut-off is given here.
# Key:
# Assay type in all cases: functional, cell-based
# [1] = target: T1, Muscarinic acetylcholine receptor M1 (Homo sapiens) (UniProt P11229); test: Potentiation of muscarinic M1 receptor expressed in CHO cells assessed as effect on acetylcholine-induced intracellular calcium mobilization after 1 hr by FLIPR assay relative to acetylcholine; parameters: concentration or dose not given beside the values
# T1 sequence (whole entry): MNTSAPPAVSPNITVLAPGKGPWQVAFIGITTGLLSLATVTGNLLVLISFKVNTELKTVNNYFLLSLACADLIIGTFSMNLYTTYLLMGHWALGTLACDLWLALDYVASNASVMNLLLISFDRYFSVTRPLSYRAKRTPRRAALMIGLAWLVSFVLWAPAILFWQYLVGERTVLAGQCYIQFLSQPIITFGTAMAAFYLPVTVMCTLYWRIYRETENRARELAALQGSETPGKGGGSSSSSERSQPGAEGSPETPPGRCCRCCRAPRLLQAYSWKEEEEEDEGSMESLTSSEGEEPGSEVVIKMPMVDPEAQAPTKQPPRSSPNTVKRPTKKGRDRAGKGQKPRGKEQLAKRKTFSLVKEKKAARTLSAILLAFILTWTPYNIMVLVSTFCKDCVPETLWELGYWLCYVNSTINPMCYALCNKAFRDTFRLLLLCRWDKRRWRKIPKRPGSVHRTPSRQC
# [2] = target: T2, Muscarinic acetylcholine receptor M1 (Homo sapiens, UniProt P11229); test: Potentiation of muscarinic M1 receptor expressed in CHO cells assessed as effect on acetylcholine-induced intracellular calcium mobilization after 1 hr by FLIPR assay
# T2 sequence (P11229 whole entry): T1 sequence (whole entry)
# [3] = target: T3, Muscarinic acetylcholine receptor M5 (Homo sapiens) (UniProt P08912); test: Potentiation of muscarinic M5 receptor expressed in CHO cells assessed as effect on acetylcholine-induced intracellular calcium mobilization at 30 uM after 1 hr by FLIPR assay relative to acetylcholine
# T3 sequence (whole entry): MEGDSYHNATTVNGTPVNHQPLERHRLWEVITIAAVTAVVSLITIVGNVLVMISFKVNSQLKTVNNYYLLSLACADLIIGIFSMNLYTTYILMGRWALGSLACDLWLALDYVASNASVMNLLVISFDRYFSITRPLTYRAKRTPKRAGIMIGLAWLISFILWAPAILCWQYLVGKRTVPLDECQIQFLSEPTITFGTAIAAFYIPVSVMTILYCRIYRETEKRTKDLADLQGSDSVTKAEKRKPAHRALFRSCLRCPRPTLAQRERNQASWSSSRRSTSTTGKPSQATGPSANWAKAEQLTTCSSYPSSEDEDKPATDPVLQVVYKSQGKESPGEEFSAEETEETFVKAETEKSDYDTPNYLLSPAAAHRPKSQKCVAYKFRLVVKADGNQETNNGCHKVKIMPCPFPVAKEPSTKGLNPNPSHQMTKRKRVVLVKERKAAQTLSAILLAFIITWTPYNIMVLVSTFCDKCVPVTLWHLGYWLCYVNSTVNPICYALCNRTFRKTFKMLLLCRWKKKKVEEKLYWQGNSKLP
# [4] = target: T3, Muscarinic acetylcholine receptor M5 (Homo sapiens); test: Potentiation of muscarinic M5 receptor expressed in CHO cells assessed as effect on acetylcholine-induced intracellular calcium mobilization at 10 uM after 1 hr by FLIPR assay relative to acetylcholine
# [5] = target: T1, Muscarinic acetylcholine receptor M1 (Homo sapiens); test: Potentiation of muscarinic M1 receptor expressed in CHO cells assessed as effect on acetylcholine-induced intracellular calcium mobilization at 10 uM after 1 hr by FLIPR assay
# [6] = target: T1, Muscarinic acetylcholine receptor M1 (Homo sapiens); test: Potentiation of muscarinic M1 receptor expressed in CHO cells assessed as effect on acetylcholine-induced intracellular calcium mobilization at 30 uM after 1 hr by FLIPR assay
# [7] = target: Muscarinic acetylcholine receptor M3 (Homo sapiens) (UniProt P20309); test: Potentiation of muscarinic M3 receptor expressed in CHO cells assessed as effect on acetylcholine-induced intracellular calcium mobilization at 30 uM after 1 hr by FLIPR assay relative to acetylcholine
# [8] = target: T1, Muscarinic acetylcholine receptor M1 (Homo sapiens); test: Potentiation of muscarinic M1 receptor expressed in CHO cells assessed as effect on acetylcholine-induced intracellular calcium mobilization at 100 uM after 1 hr by FLIPR assay
# [9] = target: T3, Muscarinic acetylcholine receptor M5 (Homo sapiens); test: Potentiation of muscarinic M5 receptor expressed in CHO cells assessed as effect on acetylcholine-induced intracellular calcium mobilization up to 30 uM after 1 hr by FLIPR assay
# [10] = target: T4, Muscarinic acetylcholine receptor M4 (Homo sapiens) (UniProt P08173); test: Potentiation of muscarinic M4 receptor expressed in CHO cells co-transfected with Gqi5 assessed as effect on acetylcholine-induced intracellular calcium mobilization up to 30 uM after 1 hr by FLIPR assay
# T4 sequence (whole entry): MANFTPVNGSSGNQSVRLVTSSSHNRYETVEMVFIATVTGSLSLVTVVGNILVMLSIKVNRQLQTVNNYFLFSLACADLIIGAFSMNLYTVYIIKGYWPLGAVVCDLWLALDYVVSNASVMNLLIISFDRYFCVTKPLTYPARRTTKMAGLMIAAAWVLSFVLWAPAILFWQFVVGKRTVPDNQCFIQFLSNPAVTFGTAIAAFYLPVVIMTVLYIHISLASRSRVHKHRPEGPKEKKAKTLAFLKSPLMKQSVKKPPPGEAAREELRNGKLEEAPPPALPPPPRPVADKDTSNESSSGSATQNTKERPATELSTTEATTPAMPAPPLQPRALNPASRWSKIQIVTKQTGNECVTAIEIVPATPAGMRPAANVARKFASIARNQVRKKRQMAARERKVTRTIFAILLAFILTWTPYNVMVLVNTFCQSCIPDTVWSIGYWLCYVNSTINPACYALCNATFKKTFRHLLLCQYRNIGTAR
# [11] = target: Muscarinic acetylcholine receptor M3 (Homo sapiens) (UniProt P20309); test: Potentiation of muscarinic M3 receptor expressed in CHO cells assessed as effect on acetylcholine-induced intracellular calcium mobilization up to 30 uM after 1 hr by FLIPR assay
# [12] = target: T5, Muscarinic acetylcholine receptor M2 (Homo sapiens) (UniProt P08172); test: Potentiation of muscarinic M2 receptor expressed in CHO cells co-transfected with Gqi5 assessed as effect on acetylcholine-induced intracellular calcium mobilization up to 30 uM after 1 hr by FLIPR assay
# T5 sequence (whole entry): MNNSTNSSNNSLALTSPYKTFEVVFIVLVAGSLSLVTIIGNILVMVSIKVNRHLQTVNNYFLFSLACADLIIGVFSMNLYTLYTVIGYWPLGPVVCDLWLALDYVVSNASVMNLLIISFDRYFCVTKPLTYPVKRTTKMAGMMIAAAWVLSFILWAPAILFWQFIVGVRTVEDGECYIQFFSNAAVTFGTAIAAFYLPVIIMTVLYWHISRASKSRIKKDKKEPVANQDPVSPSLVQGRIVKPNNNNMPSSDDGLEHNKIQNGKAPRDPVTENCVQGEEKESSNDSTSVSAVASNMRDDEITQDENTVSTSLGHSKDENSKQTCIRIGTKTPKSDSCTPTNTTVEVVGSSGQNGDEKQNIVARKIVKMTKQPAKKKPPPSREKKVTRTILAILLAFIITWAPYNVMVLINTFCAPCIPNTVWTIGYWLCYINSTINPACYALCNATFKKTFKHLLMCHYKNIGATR
# Muscarinic acetylcholine receptor M3 (Homo sapiens), sequence (P20309 whole entry, looked up): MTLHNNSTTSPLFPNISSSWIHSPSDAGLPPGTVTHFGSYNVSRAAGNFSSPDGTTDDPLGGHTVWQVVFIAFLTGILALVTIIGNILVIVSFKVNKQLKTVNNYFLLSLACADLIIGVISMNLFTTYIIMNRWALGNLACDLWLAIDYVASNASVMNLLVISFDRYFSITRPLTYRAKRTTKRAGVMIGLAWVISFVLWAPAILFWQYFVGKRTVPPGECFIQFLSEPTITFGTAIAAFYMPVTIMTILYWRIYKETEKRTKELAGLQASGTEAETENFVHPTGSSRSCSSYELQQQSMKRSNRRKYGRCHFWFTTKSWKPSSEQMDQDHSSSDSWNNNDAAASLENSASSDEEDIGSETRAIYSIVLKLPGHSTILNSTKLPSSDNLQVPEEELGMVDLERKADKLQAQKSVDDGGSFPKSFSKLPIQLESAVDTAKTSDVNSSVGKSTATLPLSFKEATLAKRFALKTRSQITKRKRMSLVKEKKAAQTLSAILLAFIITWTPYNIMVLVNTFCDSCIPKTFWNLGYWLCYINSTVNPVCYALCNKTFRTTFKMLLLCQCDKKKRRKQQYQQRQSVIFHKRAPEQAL
SMILES,Activity [1],EC50 [2],fold change (FC) [6],other results
Cn1cc(-c2ccc(CN3C(=O)C(=O)c4cccc(F)c43)c(F)c2)cn1,55%,2.3 µM,,
COc1ccc(Cn2cc(C(=O)O)c(=O)c3ccccc32)cc1,100%,,,fold change (FC) [8]: 100
Cn1cc(-c2cc(F)c(CN3C(=O)C(=O)c4cccc(F)c43)c(F)c2)cn1,40%,1.1 µM,,
Cn1cc(-c2ccc(CN3C(=O)C(=O)c4ccccc43)c(F)c2)cn1,65%,0.83 µM,3,Activity [10]: inactive; Activity [11]: inactive; Activity [9]: inactive; fold change (FC) [9]: 3; Activity [12]: inactive

# Further compounds by falling EC50 [2], results first:
Activity [1],EC50 [2],fold change (FC) [6],SMILES,other results
80%,2.3 µM,14,Cn1cc(-c2ccc(CN3C(=O)C(=O)c4ccccc43)cc2)cn1,Activity [3]: 35%; fold change (FC) [3]: 14; fold change (FC) [4]: 5; fold change (FC) [5]: 5; Activity [7]: 25%
50%,1.2 µM,,Cn1cc(-c2ccc(CN3C(=O)C(=O)c4c(F)ccc(F)c43)c(F)c2)cn1,
60%,0.86 µM,2,Cn1cc(-c2cc(F)c(CN3C(=O)C(=O)c4ccccc43)c(F)c2)cn1,fold change (FC) [9]: 2

# From ChEMBL document CHEMBL1155388 (Bioorg Med Chem Lett, 2010)
